“And” between values parts separate entries of the source, which are not always exact repeats. Identical values can stand only once.
System: MX-1 breast xenograft, nude mice, tumor weight change
Experiment: NCI In Vivo Anticancer Drug Screen. Data for tumor model Human Mammary Carcinoma MX-1 Xenograft (subcutaneous) in NU/NU Swiss (nude) mice
Settings: endpoint: optimum tumor weight change, higher = larger tumour
Method: The antitumor activity of compounds was measured in mice bearing transplantable tumors. Survival or tumor size were measured and the results are expressed as the measurement made in the treated group (T) divided by the measurement made in the vehicle treated control group (C). The tumor model used in this assay is Human Mammary Carcinoma MX-1 Xenograft (subcutaneous) in NU/NU Swiss (nude) mice

[1] = dose: 50.0 mg/kg/injection, schedule: Q04DX003 (ip), vehicle: saline
[2] = dose: 100.0 mg/kg/injection, schedule: Q04DX003 (ip), vehicle: saline
[3] = dose: 200.0 mg/kg/injection, schedule: Q04DX003 (ip), vehicle: saline
[4] = dose: 400.0 mg/kg/injection, schedule: Q04DX003 (ip), vehicle: saline
[5] = dose: 800.0 mg/kg/injection, schedule: Q04DX003 (ip), vehicle: saline
[6] = dose: 1600.0 mg/kg/injection, schedule: Q04DX003 (ip), vehicle: saline

Nc1cc2[nH]cnc2c(=O)[nH]1
T/C [1]: 58 % of control
T/C [2]: 87 % of control
T/C [3]: 59 % of control

O=C(O)CP(=O)(O)O
T/C [3]: 87 % of control
T/C [4]: 69 % of control
T/C [5]: 48 % of control
T/C [6]: 50 % of control

CNC=O
T/C [3]: 7 % of control and 29 % of control
T/C [4]: -1 % of control and 17 % of control
T/C [5]: -12 % of control
T/C [6]: -64 % of control

OCC1OC(n2cnc3cncnc32)C(O)C1O (stereo unspecified)
T/C (dose: 12.5 mg/kg/injection, schedule: Q04DX003 (ip), vehicle: saline): 88 % of control
T/C (dose: 25.0 mg/kg/injection, schedule: Q04DX003 (ip), vehicle: saline): 94 % of control
T/C [1]: 108 % of control

CC(C)=CCNc1ncnc2c1ncn2C1OC(CO)C(O)C1O (stereo unspecified)
T/C (dose: 200.0 mg/kg/injection, schedule: Q04DX003 (ip), vehicle: suspension in saline): 39 % of control
T/C (dose: 400.0 mg/kg/injection, schedule: Q04DX003 (ip), vehicle: suspension in saline): 77 % of control

O=NN(CCCl)C(=O)NC1CCCCC1
T/C (dose: 12.5 mg/kg/injection, schedule: Q04DX003 (ip), vehicle: Klucel (hydroxypropylcellulose) (HPC)): 75 % of control

COc1cc(NS(C)(=O)=O)ccc1Nc1c2ccccc2nc2ccccc12
T/C (dose: 8.0 mg/kg/injection, schedule: Q04DX003 (ip), vehicle: saline + alcohol): 74 % of control

Nc1nc(N)c2cc(CNc3ccc(C(=O)NC(CC(=O)O)CC(=O)O)cc3)ccc2n1
T/C (dose: 50.0 mg/kg/injection, schedule: Q04DX003 (ip), vehicle: Klucel (hydroxypropylcellulose) (HPC)): 75 % of control
T/C (dose: 100.0 mg/kg/injection, schedule: Q04DX003 (ip), vehicle: Klucel (hydroxypropylcellulose) (HPC)): 49 % of control

CN(CO)c1nc(N(C)CO)nc(N(C)CO)n1
T/C (dose: 25.0 mg/kg/injection, schedule: Q01DX005 (ip), vehicle: saline): 3 % of control and 16 % of control
T/C (dose: 25.0 mg/kg/injection, schedule: Q04DX005 (ip), vehicle: saline): 45 % of control and 58 % of control
T/C (dose: 50.0 mg/kg/injection, schedule: Q01DX005 (ip), vehicle: saline): -7 % of control and 4 % of control
T/C (dose: 100.0 mg/kg/injection, schedule: Q01DX005 (ip), vehicle: saline): -97 % of control and -91 % of control
T/C (dose: 100.0 mg/kg/injection, schedule: Q07DX005 (ip), vehicle: saline): 24 % of control and 28 % of control
T/C (dose: 200.0 mg/kg/injection, schedule: Q01DX005 (ip), vehicle: saline): -94 % of control
T/C (dose: 200.0 mg/kg/injection, schedule: Q04DX005 (ip), vehicle: saline): -87 % of control and -82 % of control
T/C (dose: 200.0 mg/kg/injection, schedule: Q07DX005 (ip), vehicle: saline): -96 % of control

CN(N=O)C(=O)N[C@@H](C=O)[C@@H](O)[C@H](O)[C@H](O)CO
T/C [2]: 58 % of control
T/C [3]: 80 % of control

CC[C@](O)(C(=O)O)c1cc2n(c(=O)c1CO)Cc1cc3ccccc3nc1-2
T/C (dose: 4.5 mg/kg/injection, schedule: Q04DX003 (ip), vehicle: saline): 122 % of control
T/C (dose: 9.0 mg/kg/injection, schedule: Q04DX003 (ip), vehicle: saline): 97 % of control
T/C (dose: 16.0 mg/kg/injection, schedule: Q04DX003 (ip), vehicle: saline): 44 % of control
T/C (dose: 18.0 mg/kg/injection, schedule: Q04DX003 (ip), vehicle: saline): 59 % of control
T/C (dose: 36.0 mg/kg/injection, schedule: Q04DX003 (ip), vehicle: saline): 70 % of control

COC1C(C)OC(OC2CC(C)(O)Cc3cc4c(c(O)c32)C(=O)c2c(O)cc3c(c2C4=O)OC2OC3(C)C(O)C(N(C)C)C2O)C(OC)C1(C)OC (stereo unspecified)
T/C (dose: 5.0 mg/kg/injection, schedule: Q04DX003 (ip), vehicle: Klucel (hydroxypropylcellulose) (HPC)): 204 % of control
T/C (dose: 10.0 mg/kg/injection, schedule: Q04DX003 (ip), vehicle: Klucel (hydroxypropylcellulose) (HPC)): 207 % of control

CCCCNCCCNCCCNC(=O)c1csc(-c2csc(CCNC(=O)C(NC(=O)C(C)C(O)C(C)NC(=O)C(NC(=O)c3nc(C(CC(N)=O)NCC(N)C(N)=O)nc(N)c3C)C(OC3OC(CO)C(O)C(O)C3OC3OC(CO)C(O)C(OC(N)=O)C3O)c3cnc[nH]3)C(C)O)n2)n1 (stereo unspecified)
T/C (dose: 7.5 mg/kg/injection, schedule: Q04DX003 (ip), vehicle: saline): 49 % of control and 57 % of control
T/C (dose: 30.0 mg/kg/injection, schedule: Q04DX003 (ip), vehicle: saline): 29 % of control (2×) and 49 % of control
T/C (dose: 60.0 mg/kg/injection, schedule: Q04DX003 (ip), vehicle: saline): 5 % of control and 12 % of control and 18 % of control
T/C (dose: 120.0 mg/kg/injection, schedule: Q04DX003 (ip), vehicle: saline): 2 % of control
